± gives the uncertainty stated by the source.
Assay: xn = mol fraction of the nth substance listed

CN(C)CCCN + O
viscosity [mPa·s]
Conditions | 293.15 K | 303.15 K | 308.15 K | 313.15 K | 318.15 K | 323.15 K
100 kPa, x1 = 0.1 | 8.105 ± 0.42 | 5.084 ± 0.26 | – | 3.421 ± 0.18 | – | 2.362 ± 0.12
100 kPa, x1 = 0.1998 | 13.62 ± 0.68 | 8.093 ± 0.41 | – | 5.329 ± 0.27 | – | 3.605 ± 0.18
100 kPa, x1 = 0.2998 | 11.49 ± 0.58 | 7.049 ± 0.35 | – | 4.586 ± 0.23 | – | 3.142 ± 0.16
100 kPa, x1 = 0.4004 | 7.437 ± 0.38 | 4.84 ± 0.24 | – | 3.296 ± 0.17 | – | 2.359 ± 0.12
100 kPa, x1 = 0.5003 | 4.661 ± 0.24 | 3.222 ± 0.16 | – | 2.339 ± 0.12 | – | 1.759 ± 0.089
100 kPa, x1 = 0.5989 | 3.168 ± 0.16 | 2.25 ± 0.11 | – | 1.781 ± 0.09 | – | 1.363 ± 0.069
100 kPa, x1 = 0.6992 | 2.225 ± 0.11 | 1.7 ± 0.086 | – | 1.333 ± 0.068 | – | 1.076 ± 0.054
100 kPa, x1 = 0.8005 | 1.691 ± 0.086 | 1.294 ± 0.066 | – | 1.046 ± 0.053 | – | 0.8667 ± 0.044
100 kPa, x1 = 0.8999 | 1.327 ± 0.067 | 1.07 ± 0.054 | – | 0.8872 ± 0.045 | – | 0.75 ± 0.038
101 kPa, x1 = 0.0488 | – | 2.376 ± 0.017 | – | – | – | –
101 kPa, x1 = 0.0996 | – | 4.856 ± 2 | 3.946 ± 1.3 | 3.263 ± 0.85 | 2.739 ± 0.58 | 2.323 ± 0.41
101 kPa, x1 = 0.0999 | – | 5.01 ± 0.036 | – | – | – | –
101 kPa, x1 = 0.147 | – | 7.175 ± 0.051 | – | – | – | –
101 kPa, x1 = 0.1504 | – | 7.078 | 5.637 ± 2.8 | 4.578 ± 1.8 | 3.791 ± 1.2 | 3.16 ± 0.82
101 kPa, x1 = 0.1743 | – | 7.96 ± 0.058 | – | – | – | –
101 kPa, x1 = 0.1994 | – | 8.356 | 6.623 | 5.341 ± 2.5 | 4.372 ± 1.6 | 3.624 ± 1.1
101 kPa, x1 = 0.1999 | – | 8.348 ± 0.061 | – | – | – | –
101 kPa, x1 = 0.2247 | – | 8.378 ± 0.063 | – | – | – | –
101 kPa, x1 = 0.2497 | – | 8.194 ± 0.062 | – | – | – | –
101 kPa, x1 = 0.2521 | – | 8.394 | 6.631 | 5.351 ± 2.5 | 4.383 ± 1.6 | 3.636 ± 1.1
101 kPa, x1 = 0.2744 | – | 7.787 ± 0.061 | – | – | – | –
101 kPa, x1 = 0.2995 | – | 7.688 | 6.133 | 4.967 ± 2.1 | 4.089 ± 1.4 | 3.402 ± 0.96
101 kPa, x1 = 0.2998 | – | 7.275 ± 0.058 | – | – | – | –
101 kPa, x1 = 0.3809 | – | 6.001 | 4.861 ± 2 | 4.005 ± 1.3 | 3.354 ± 0.91 | 2.831 ± 0.63
101 kPa, x1 = 0.5 | – | 3.919 ± 1.2 | 3.282 ± 0.82 | 2.77 ± 0.57 | 2.372 ± 0.4 | 2.049 ± 0.29
101 kPa, x1 = 0.5994 | – | 2.525 ± 0.41 | 2.116 ± 0.28 | 1.884 ± 0.21 | 1.65 ± 0.16 | 1.461 ± 0.12
101 kPa, x1 = 0.6826 | – | 1.939 ± 0.2 | 1.701 ± 0.15 | 1.502 ± 0.11 | 1.339 ± 0.086 | 1.201 ± 0.067
101 kPa, x1 = 0.7798 | – | 1.492 ± 0.086 | 1.329 ± 0.066 | 1.191 ± 0.05 | 1.077 ± 0.04 | 0.9811 ± 0.032
101 kPa, x1 = 0.8918 | – | 1.163 ± 0.028 | 1.042 ± 0.02 | 0.9578 ± 0.017 | 0.8777 ± 0.014 | 0.8099 ± 0.012

From the CheMixHub viscosity set
